Values of other authors as cited in patent US20210260012A1, “COMPOSITIONS FOR THE PREVENTION AND TREATMENT OF CUTANEOUS AFFECTIONS” (I.C.F. SRL, priority 2018, published 2021).

System: biofilms from E. coli
Settings: at high concentrations

CC(=O)NC(CS)C(=O)O (stereo not drawn) [Acetylcysteine, α-acetamido-β-mercaptopropanoic acid]
reduction in the mass of biofilms: up to 55%
